Data from US9302999B2, “Substituted triazoles as herbicides” (E. I. DU PONT DE NEMOURS AND COMPANY, priority 2012, dated 2016).

How the values were obtained:
Type in all cases: in vivo
[1] = system: barnyardgrass (Echinochloa crus-galli); experiment: Test A pre-/postemergence: barnyardgrass; conditions: for Barnyardgrass plant response rating: Postemergence; for Plant response rating, Barnyardgrass: Preemergence
How it was run: (§1)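 Each species received preemergence soil-directed spraying and, at the same time, postemergence treatment of seedlings 2–10 cm tall. Formulation: non-phytotoxic solvent mixture including surfactant. Response assessed visually about ten days on, relative to untreated controls, 0–100 scale.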

[2] = system: crabgrass, large (large crabgrass, Digitaria sanguinalis); experiment: Test A pre-/postemergence: crabgrass, large; conditions: for Crabgrass, Large plant response rating: Postemergence; for Plant response rating, Crabgrass, Large: Preemergence
How it was run: as §1

[3] = system: foxtail, giant (giant foxtail, Setaria faberii); experiment: Test A pre-/postemergence: foxtail, giant; conditions: for Foxtail, Giant plant response rating: Postemergence; for Plant response rating, Foxtail, Giant: Preemergence
How it was run: as §1

[4] = system: morningglory (Ipomoea spp.); experiment: Test A pre-/postemergence: morningglory; conditions: for Morningglory plant response rating: Postemergence; for Plant response rating, Morningglory: Preemergence
How it was run: as §1

[5] = system: pigweed (Amaranthus retroflexus); experiment: Test A pre-/postemergence: pigweed; conditions: for Pigweed plant response rating: Postemergence; for Plant response rating, Pigweed: Preemergence
How it was run: as §1

[6] = system: velvetleaf (Abutilon theophrasti); experiment: Test A pre-/postemergence: velvetleaf; conditions: for Velvetleaf plant response rating: Postemergence; for Plant response rating, Velvetleaf: Preemergence
How it was run: as §1

[7] = system: wheat (Triticum aestivum); experiment: Test A pre-/postemergence: wheat; conditions: for Wheat plant response rating: Postemergence; for Plant response rating, Wheat: Preemergence
How it was run: as §1

[8] = system: corn (Zea mays); experiment: Test A pre-/postemergence: corn; conditions: for Corn plant response rating: Postemergence; for Plant response rating, Corn: Preemergence
How it was run: as §1

[9] = system: rice (Oryza sativa); experiment: Test C flooded paddy test: rice; conditions: scale 0 to 100 (0 no effect, 100 complete control)
How it was run: (§2)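 Visual ratings from 0 (no effect) to 100 (complete control), made against untreated controls 13 to 15 days after treatment, express plant response. Compounds went directly into paddy water over 2-leaf stage plants in pots flooded to 3 cm.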

[10] = system: sedge, umbrella (small-flower umbrella sedge, Cyperus difformis); experiment: Test C flooded paddy test: sedge, umbrella; conditions: scale 0 to 100 (0 no effect, 100 complete control)
How it was run: as §2

[11] = system: ducksalad (Heteranthera limosa); experiment: Test C flooded paddy test: ducksalad; conditions: scale 0 to 100 (0 no effect, 100 complete control)
How it was run: as §2

[12] = system: barnyardgrass (Echinochloa crus-galli); experiment: Test C flooded paddy test: barnyardgrass; conditions: scale 0 to 100 (0 no effect, 100 complete control)
How it was run: as §2

[13] = 125 g ai/ha, 0 to 100 scale, 0 is no effect, 100 is complete control
[14] = 500 g ai/ha, visual rating on 0 to 100 scale (0 no effect, 100 complete control), approximately ten days
[15] = 125 g ai/ha, 0 to 100 scale (0 no effect, 100 complete control)
[16] = 500 g ai/ha, 0 to 100 scale, 0 is no effect, 100 is complete control
[17] = Flood (flooded paddy test), 125 g ai/ha, visual rating after 13 to 15 days
[18] = Flood (flooded paddy test), 250 g ai/ha, visual rating after 13 to 15 days
[19] = Flood (flooded paddy test), 62 g ai/ha, visual rating after 13 to 15 days

Cc1nn(-c2ccc(C(F)(F)F)cc2)nc1Oc1ccccc1Cl [Compound 82]
Barnyardgrass plant response rating [1, 13]: 0 | Barnyardgrass plant response rating [1, 14]: 0 | Plant response rating, Barnyardgrass [1, 15]: 0 | Plant response rating, Barnyardgrass [1, 16]: 0 | Crabgrass, Large plant response rating [2, 13]: 0 | Crabgrass, Large plant response rating [2, 14]: 0 | Plant response rating, Crabgrass, Large [2, 15]: 0 | Plant response rating, Crabgrass, Large [2, 16]: 0 | Foxtail, Giant plant response rating [3, 13]: 0 | Foxtail, Giant plant response rating [3, 14]: 0 | Plant response rating, Foxtail, Giant [3, 15]: 0 | Plant response rating, Foxtail, Giant [3, 16]: 0 | Morningglory plant response rating [4, 13]: 0 | Morningglory plant response rating [4, 14]: 0 | Plant response rating, Morningglory [4, 15]: 0 | Plant response rating, Morningglory [4, 16]: 0 | Pigweed plant response rating [5, 13]: 0 | Pigweed plant response rating [5, 14]: 0 | Plant response rating, Pigweed [5, 15]: 0 | Plant response rating, Pigweed [5, 16]: 0 | Velvetleaf plant response rating [6, 13]: 0 | Velvetleaf plant response rating [6, 14]: 0 | Plant response rating, Velvetleaf [6, 15]: 0 | Plant response rating, Velvetleaf [6, 16]: 0 | Wheat plant response rating [7, 13]: 0 | Wheat plant response rating [7, 14]: 0 | Plant response rating, Wheat [7, 15]: 0 | Plant response rating, Wheat [7, 16]: 0 | Corn plant response rating [8, 13]: 0 | Corn plant response rating [8, 14]: 0 | Plant response rating, Corn [8, 15]: 0 | Plant response rating, Corn [8, 16]: 0 | Plant response rating, Rice [9, 17]: 0 | Plant response rating, Rice [9, 18]: 0 | Plant response rating, Rice ([9]; Flood, 31 g ai/ha): 0 | Plant response rating, Rice ([9]; Flood, 62 g ai/ha): 0 | Plant response rating, Sedge, Umbrella [10, 17]: 0 | Plant response rating, Sedge, Umbrella [10, 18]: 0 | Plant response rating, Sedge, Umbrella ([10]; Flood, 31 g ai/ha): 0 | Plant response rating, Sedge, Umbrella ([10]; Flood, 62 g ai/ha): 0 | Plant response rating, Ducksalad [11, 17]: 0 | Plant response rating, Ducksalad [11, 18]: 0 | Plant response rating, Ducksalad ([11]; Flood, 31 g ai/ha): 0 | Plant response rating, Ducksalad ([11]; Flood, 62 g ai/ha): 0 | Plant response rating, Barnyardgrass [12, 17]: 0 | Plant response rating, Barnyardgrass [12, 18]: 0 | Plant response rating, Barnyardgrass ([12]; Flood, 31 g ai/ha): 0 | Plant response rating, Barnyardgrass ([12]; Flood, 62 g ai/ha): 0

Cc1nn(-c2ccncc2)nc1C(=O)c1cccc(C(F)(F)F)c1 [Compound 22]
Barnyardgrass plant response rating [1, 13]: 10 | Barnyardgrass plant response rating [1, 14]: 20 | Plant response rating, Barnyardgrass [1, 15]: 0 | Plant response rating, Barnyardgrass [1, 16]: 10 | Crabgrass, Large plant response rating [2, 13]: 40 | Crabgrass, Large plant response rating [2, 14]: 60 | Plant response rating, Crabgrass, Large [2, 15]: 10 | Plant response rating, Crabgrass, Large [2, 16]: 40 | Foxtail, Giant plant response rating [3, 13]: 20 | Foxtail, Giant plant response rating [3, 14]: 50 | Plant response rating, Foxtail, Giant [3, 15]: 20 | Plant response rating, Foxtail, Giant [3, 16]: 80 | Morningglory plant response rating [4, 13]: 10 | Morningglory plant response rating [4, 14]: 20 | Plant response rating, Morningglory [4, 15]: 0 | Plant response rating, Morningglory [4, 16]: 0 | Pigweed plant response rating [5, 13]: 50 | Pigweed plant response rating [5, 14]: 80 | Plant response rating, Pigweed [5, 15]: 10 | Plant response rating, Pigweed [5, 16]: 10 | Velvetleaf plant response rating [6, 13]: 10 | Velvetleaf plant response rating [6, 14]: 30 | Plant response rating, Velvetleaf [6, 15]: 0 | Plant response rating, Velvetleaf [6, 16]: 0 | Wheat plant response rating [7, 13]: 10 | Plant response rating, Wheat [7, 15]: 0 | Plant response rating, Wheat [7, 16]: 0 | Corn plant response rating [8, 13]: 10 | Corn plant response rating [8, 14]: 20 | Plant response rating, Corn [8, 15]: 0 | Plant response rating, Corn [8, 16]: 0 | Plant response rating, Rice [9, 19]: 0 | Plant response rating, Rice [9, 17]: 0 | Plant response rating, Rice [9, 18]: 0 | Plant response rating, Rice ([9]; Flood, 31 g ai/ha): 0 | Plant response rating, Sedge, Umbrella [10, 19]: 0 | Plant response rating, Sedge, Umbrella [10, 17]: 0 | Plant response rating, Sedge, Umbrella [10, 18]: 0 | Plant response rating, Sedge, Umbrella ([10]; Flood, 31 g ai/ha): 0 | Plant response rating, Ducksalad [11, 19]: 0 | Plant response rating, Ducksalad [11, 17]: 0 | Plant response rating, Ducksalad [11, 18]: 0 | Plant response rating, Ducksalad ([11]; Flood, 31 g ai/ha): 0 | Plant response rating, Barnyardgrass [12, 19]: 0 | Plant response rating, Barnyardgrass [12, 17]: 0 | Plant response rating, Barnyardgrass [12, 18]: 0 | Plant response rating, Barnyardgrass ([12]; Flood, 31 g ai/ha): 0

Cc1nn(-c2ccc(Cl)cc2)nc1Oc1ccnc(C(F)(F)F)c1 [Compound 52]
Barnyardgrass plant response rating [1, 13]: 20 | Barnyardgrass plant response rating [1, 14]: 70 | Plant response rating, Barnyardgrass [1, 15]: 20 | Plant response rating, Barnyardgrass [1, 16]: 90 | Crabgrass, Large plant response rating [2, 13]: 50 | Crabgrass, Large plant response rating [2, 14]: 100 | Plant response rating, Crabgrass, Large [2, 15]: 100 | Plant response rating, Crabgrass, Large [2, 16]: 100 | Foxtail, Giant plant response rating [3, 13]: 50 | Foxtail, Giant plant response rating [3, 14]: 100 | Plant response rating, Foxtail, Giant [3, 15]: 100 | Plant response rating, Foxtail, Giant [3, 16]: 100 | Morningglory plant response rating [4, 13]: 40 | Morningglory plant response rating [4, 14]: 100 | Plant response rating, Morningglory [4, 15]: 10 | Plant response rating, Morningglory [4, 16]: 20 | Pigweed plant response rating [5, 13]: 100 | Pigweed plant response rating [5, 14]: 100 | Plant response rating, Pigweed [5, 15]: 100 | Velvetleaf plant response rating [6, 13]: 30 | Velvetleaf plant response rating [6, 14]: 100 | Plant response rating, Velvetleaf [6, 15]: 0 | Plant response rating, Velvetleaf [6, 16]: 10 | Wheat plant response rating [7, 13]: 10 | Wheat plant response rating [7, 14]: 20 | Plant response rating, Wheat [7, 15]: 0 | Plant response rating, Wheat [7, 16]: 0 | Corn plant response rating [8, 13]: 10 | Corn plant response rating [8, 14]: 20 | Plant response rating, Corn [8, 15]: 0 | Plant response rating, Corn [8, 16]: 10 | Plant response rating, Rice [9, 19]: 15 | Plant response rating, Rice [9, 18]: 40 | Plant response rating, Sedge, Umbrella [10, 19]: 65 | Plant response rating, Sedge, Umbrella [10, 18]: 85 | Plant response rating, Ducksalad [11, 19]: 80 | Plant response rating, Ducksalad [11, 18]: 95 | Plant response rating, Barnyardgrass [12, 19]: 40 | Plant response rating, Barnyardgrass [12, 18]: 75
